# Source: patent US7417024B2, “Template-fixed peptidomimetics as inhibitors of serine proteases” (Polyphor Ltd., priority 2001, dated 2008)
# Where a SMILES comes first, the peptide text is derived from it. Bridges are numbered along the chain shown (N, C = ends). [ ]: non-standard residue; d: D form.
# T1: Trypsin (Bos taurus, UniProt P00760)
# T1 sequence (P00760 24-246): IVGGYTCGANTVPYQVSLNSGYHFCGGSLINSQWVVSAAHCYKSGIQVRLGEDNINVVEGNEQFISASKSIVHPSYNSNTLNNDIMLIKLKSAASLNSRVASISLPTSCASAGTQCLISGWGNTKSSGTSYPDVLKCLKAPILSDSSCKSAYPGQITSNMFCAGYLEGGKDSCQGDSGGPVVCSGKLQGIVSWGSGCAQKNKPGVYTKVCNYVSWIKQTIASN
# T2: Cathepsin G (human, UniProt P08311 21-244)
# T2 construct: the assay paragraph itself says only 'cathepsin G ... purchased from Calbiochem'; also called human cathepsin G
# T2 sequence (looked up): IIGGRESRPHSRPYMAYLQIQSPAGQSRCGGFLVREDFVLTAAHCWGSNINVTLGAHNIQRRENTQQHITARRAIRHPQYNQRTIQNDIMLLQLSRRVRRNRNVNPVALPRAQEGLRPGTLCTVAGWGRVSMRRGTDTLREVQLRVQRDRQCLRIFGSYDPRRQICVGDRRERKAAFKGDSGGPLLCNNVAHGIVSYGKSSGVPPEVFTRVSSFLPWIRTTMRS
# Legend:
# Trypsin [1] = target: T1, Trypsin; assay: Enzymatic assay, determination of antitrypsin activity (apparent Ki); assay type: biochemical; conditions: competitive tight-binding fit
# Experimental: (§1) The active enzyme concentrations were calculated using the equation described by Hendersen (P. J. F. Hendersen, Biochem. J. 1972, 127, 321-333). The inhibitor concentrations were determined by quantitative amino acid analysis. All assays were repeated in quadruplicate.
# Determination of Antitrypsin Activity
# (§2) As above, except the substrate was N-succinyl-L-alanyl-L-alanyl-L-prolyl-L-phenylalanin-4-nitroanilide (N-succinyl—SEQ ID NO:16—4-nitroanilide; 1.6 mM).
# (§3) Apparent Ki values were calculated by fitting the initial rate data to the following equation, which assumes competitive tight-binding inhibition (J. F. Williams, J. F. Morrison, Methods Enzymol. 1979, 63, 437-467): […]
# Chymotrypsin [2] = target: Chymotrypsin (Homo sapiens, UniProt P17538); assay: Enzymatic assay, chymotrypsin inhibition (apparent Ki); assay type: biochemical; conditions: substrate N-succinyl-Ala-Ala-Pro-Phe-4-nitroanilide 1.6 mM
# Sequence of Chymotrypsin (Homo sapiens, UniProt P17538) (P17538 19-263): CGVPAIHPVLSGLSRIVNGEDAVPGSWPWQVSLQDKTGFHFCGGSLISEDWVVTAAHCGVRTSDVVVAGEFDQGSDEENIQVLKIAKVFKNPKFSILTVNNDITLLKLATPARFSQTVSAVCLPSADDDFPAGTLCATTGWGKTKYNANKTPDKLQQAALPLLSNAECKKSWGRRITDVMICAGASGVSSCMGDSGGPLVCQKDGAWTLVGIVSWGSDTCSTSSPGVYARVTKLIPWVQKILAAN
# Experimental: as §1, §2, §3
# Trypsin [3] = assay: enzyme inhibition, chromogenic substrate; apparent Ki fitted as competitive tight-binding inhibition
# Cathepsin G = target: T2, Cathepsin G; assay: enzyme inhibition, Suc-Ala-Ala-Pro-Phe-pNA substrate, release of p-nitroanilide at 405 nm
# Experimental: Determination of Anti Cathepsin G Activity […] of a solution of cathepsin G (0.2 U/mL, corresponding to around 2 µM, purchased from Calbiochem) were incubated for 15 minutes with increasing concentrations of inhibitor. The assays were carried out at 37° C. in a total volume of 700 µl of HEPES buffer (pH 7.5; 0.1 mol/L) containing 0.05 mol/L CaCl_2. Then, 70 µl of the following substrate at 20 mM in DMSO were added (—N-succinyl-L-alanyl-L-alanyl-L-prolyl-L-phenylalanin-4-nitroanilide, (N-succinyl—SEQ ID NO:16—4-nitroanilide). The release of p-nitroanilide was monitored at 405 nm to determine the initial velocities of the reactions. Each measurement was reproduced three times (A. J. Barrett, Methods in Enzymology 1981, 80, 561-565).
# Chymotrypsin [4] = assay: enzyme inhibition, chromogenic substrate; apparent Ki fitted as competitive tight-binding inhibition
Molecule,Ki (Trypsin [1]) [nM],Ki (Chymotrypsin [2]) [nM],also measured
CC[C@H](C)[C@@H]1NC(=O)[C@@H]2CCCN2C(=O)[C@@H]2CCCN2C(=O)[C@H]([C@@H](C)CC)NC(=O)[C@H](C)NC(=O)[C@H](CCCCN)NC(=O)[C@H]([C@@H](C)O)NC(=O)[C@@H]2CCCN2C(=O)[C@H]2CCCN2C1=O [Ex. 4] (cyclo(TKAIPPI[dP]P)),700,–,–
CC[C@H](C)[C@@H]1NC(=O)[C@@H]2CCCN2C(=O)[C@@H]2CCCN2C(=O)[C@H]([C@@H](C)CC)NC(=O)[C@H](CO)NC(=O)[C@H](C)NC(=O)[C@H]([C@@H](C)O)NC(=O)[C@@H]2CCCN2C(=O)[C@H]2CCCN2C1=O [Ex. 3] (cyclo(TASIPPI[dP]P)),> 10000,–,–
CC[C@H](C)[C@@H]1NC(=O)[C@@H]2CCCN2C(=O)[C@@H]2CCCN2C(=O)[C@H]([C@@H](C)CC)NC(=O)[C@H](CO)NC(=O)[C@H](CCCCN)NC(=O)[C@H](C)NC(=O)[C@@H]2CCCN2C(=O)[C@H]2CCCN2C1=O [Ex. 2] (cyclo(AKSIPPI[dP]P)),1500,–,–
CC[C@H](C)[C@@H]1NC(=O)[C@@H]2CCCN2C(=O)[C@@H]2CCCN2C(=O)[C@H]([C@@H](C)CC)NC(=O)[C@H](CO)NC(=O)[C@H](Cc2ccc(O)cc2)NC(=O)[C@H]([C@@H](C)O)NC(=O)[C@@H]2CCCN2C(=O)[C@H]2CCCN2C1=O [Ex. 9] (cyclo(TYSIPPI[dP]P)),> 25000,4400,–
CC[C@H](C)[C@@H]1NC(=O)[C@@H]2CCCN2C(=O)[C@@H]2CCCN2C(=O)[C@H](C)NC(=O)[C@H](CO)NC(=O)[C@H](CCCCN)NC(=O)[C@H]([C@@H](C)O)NC(=O)[C@@H]2CCCN2C(=O)[C@H]2CCCN2C1=O [Ex. 5] (cyclo(TKSAPPI[dP]P)),1900,–,–
CC[C@H](C)[C@@H]1NC(=O)[C@H](CO)NC(=O)[C@H](CCCCN)NC(=O)[C@H]([C@@H](C)O)NC(=O)[C@@H]2CCCN2C(=O)[C@H]2CCCN2C(=O)[C@H]([C@@H](C)CC)NC(=O)[C@@H]2CCCN2C(=O)[C@H](C)NC1=O [Ex. 6] (cyclo(TKSIAPI[dP]P)),> 25000,–,–
CC[C@H](C)[C@@H]1NC(=O)[C@H](C)NC(=O)[C@@H]2CCCN2C(=O)[C@H]([C@@H](C)CC)NC(=O)[C@H](CO)NC(=O)[C@H](CCCCN)NC(=O)[C@H]([C@@H](C)O)NC(=O)[C@@H]2CCCN2C(=O)[C@H]2CCCN2C1=O [Ex. 7] (cyclo(TKSIPAI[dP]P)),110,–,–
CC[C@H](C)[C@@H]1NC(=O)[C@H](CO)NC(=O)[C@H](CCCCN)NC(=O)[C@H]([C@@H](C)O)NC(=O)[C@@H]2CCCN2C(=O)[C@H]2CCCN2C(=O)[C@H](C)NC(=O)[C@@H]2CCCN2C(=O)[C@@H]2CCCN2C1=O [Ex. 8] (cyclo(TKSIPPA[dP]P)),710,–,–
CC[C@H](C)[C@@H]1NC(=O)[C@@H]2CCCN2C(=O)[C@@H]2CCCN2C(=O)[C@H]([C@@H](C)CC)NC(=O)[C@H](CO)NC(=O)[C@H](Cc2ccccc2)NC(=O)[C@H]([C@@H](C)O)NC(=O)[C@@H]2CCCN2C(=O)[C@H]2CCCN2C1=O [Ex. 11] (cyclo(TFSIPPI[dP]P)),> 20000,4700,–
CC[C@H](C)[C@@H]1NC(=O)[C@@H]2CCCN2C(=O)[C@@H]2CCCN2C(=O)[C@H]([C@@H](C)CC)NC(=O)[C@H](CO)NC(=O)[C@H](Cc2c[nH]c3ccccc23)NC(=O)[C@H]([C@@H](C)O)NC(=O)[C@@H]2CCCN2C(=O)[C@H]2CCCN2C1=O [Ex. 10] (cyclo(TWSIPPI[dP]P)),> 20000,1400,–
CC[C@H](C)[C@@H]1NC(=O)[C@@H]2CCCN2C(=O)[C@@H]2CCCN2C(=O)[C@H]([C@@H](C)CC)NC(=O)[C@H](CO)NC(=O)[C@H](CCCCN)NC(=O)[C@H]([C@@H](C)O)NC(=O)[C@@H]2CSSC[C@H](NC1=O)C(=O)N[C@@H](Cc1ccccc1)C(=O)N1CCC[C@@H]1C(=O)N1CCC[C@H]1C(=O)N[C@@H](CCCNC(=N)N)C(=O)N2 [Ex. 15] (cyclo(RCTKSIPPICF[dP]P); disulfide 2-10),21,3800,–
CC[C@H](C)[C@@H]1NC(=O)[C@@H]2CCCN2C(=O)[C@@H]2CCCN2C(=O)[C@H]([C@@H](C)CC)NC(=O)[C@H](CO)NC(=O)[C@H](CCCCN)NC(=O)[C@H]([C@@H](C)O)NC(=O)[C@@H]2CCCN2C(=O)[C@H]2CCCN2C1=O [Ex. 1] (cyclo(TKSIPPI[dP]P)),100,> 10000,–
"cyclo(TKSIPPI[dP]P) (SMILES CC[C@H](C)[C@@H]1NC(=O)[C@@H]2CCCN2C(=O)[C@@H]2CCCN2C(=O)[C@H]([C@@H](C)CC)NC(=O)[C@H](CO)NC(=O)[C@H](CCCCN)NC(=O)[C@H]([C@@H](C)O)NC(=O)[C@@H]2CCCN2C(=O)[C@H]2CCCN2C1=O, Template-fixed beta-hairpin mimetic, cyclic; parent of the Ala scan) [Ex. 1]",–,–,Ki (Trypsin [3]): 100 nM; Ki (Cathepsin G): 100000 nM
"cyclo(RCTKSIPPICF[dP]P) (disulfide 2-10; SMILES CC[C@H](C)[C@@H]1NC(=O)[C@@H]2CCCN2C(=O)[C@@H]2CCCN2C(=O)[C@H]([C@@H](C)CC)NC(=O)[C@H](CO)NC(=O)[C@H](CCCCN)NC(=O)[C@H]([C@@H](C)O)NC(=O)[C@@H]2CSSC[C@H](NC1=O)C(=O)N[C@@H](Cc1ccccc1)C(=O)N1CCC[C@@H]1C(=O)N1CCC[C@H]1C(=O)N[C@@H](CCCNC(=N)N)C(=O)N2, n=11 mimetic made by procedure 3 (disulfide between P2 and P10)) [Ex. 15]",–,–,Ki (Chymotrypsin [4]): 3800 nM; Ki (Trypsin [3]): 21 nM; Ki (Cathepsin G): 10000 nM
